Source: US8350076B2, “Sodium channel blockers” (University of Virginia Patent Foundation, priority 2002, dated 2013)
Read-outs that look alike come from different tables or passages of the source. Marks after values point to notes of the source that are not given here.

Experiments:
Nav1.5 = Nav1.5 (Homo sapiens, UniProt Q14524); assay: Electrophysiology, sodium currents in CHO cells stably expressing Nav1.5
LNCaP = assay: Long-term growth assay (crystal violet), LNCaP; type: cell-based; conditions: Homo sapiens, 120 h, day 5, read-out: Day Five Effects on Cell line IC50 (μM) ± S.E.M., LNCaP
PC-3M = assay: Long-term growth assay (crystal violet), PC-3M; type: cell-based; conditions: Homo sapiens, 120 h, day 5, read-out: Day Five Effects on Cell line IC50 (μM) ± S.E.M., PC-3M
Experimental: (§1) C4-2 cells were plated at cell densities established previously to reach saturation at day 7. The cells were allowed to recover overnight before a media change with the analogues (all at 40 μM) was performed. The assays were terminated at day 1, 3, 5 and 7. Media changes were performed on day 0, 2, 4 and 6 with fresh analogues added each time. The cells were then fixed with glutaraldehyde and stained with crystal violet. The dye is then eluted in Sorenson's solution and the absorbance read at 540 nm. […] These assays were repeated for DU145, PC-3 and the paired metastatic cell line PC-3M. The data were normalized to the day 7 DMSO control for each cell line to allow for direct cell:cell comparison.

PC-3 cells [1] = assay: 3H-thymidine uptake (DNA synthesis) in PC-3 cells; type: cell-based, human; conditions: for inhibition at 1 µM / inhibition at 10 µM / inhibition at 20 µM / inhibition at 40 µM / inhibition at 100 µM: Homo sapiens, read-out: % Inhibition of PC3 Cells; for inhibition at 1 µM: PC-3, 1 μM; for inhibition at 10 µM: PC-3, 10 μM; for inhibition at 20 µM: PC-3, 20 μM; for inhibition at 40 µM: PC-3, 40 μM; for inhibition at 100 µM: PC-3, 100 μM; for effect on DNA synthesis (in words): dosages tested 1-100 μM
Experimental: The novel sodium channel blockers were assayed for activity against paired sets of cell lines with increasing metastatic potential, PC-3 and PC-3M (already androgen independent, AI), or increasing metastatic potential with increasing androgen independence, LNCaP and C4-2. DU145 was also included to provide another AI cell line with intermediate tumorigenicity between the LNCaP series and the PC-3 derivatives. This strategy allows an examination of at least three different genotypes for comparison of drug efficacy. […] The first assay used to screen these compounds was 3H-thymidine uptake in PC-3 cells. The cells were trypsinized, equal cell numbers were placed into each well and allowed to recover overnight.

DU-145 = assay: Long-term growth assay (crystal violet), DU-145; type: cell-based; conditions: Homo sapiens, DU-145, 120 h; day 5; read-out: Day Five Effects on Cell line IC50 (μM) ± S.E.M., DU-145
Experimental: as §1

C4-2 cells = assay: Long-term growth assay (crystal violet), C4-2; type: cell-based, human; conditions: for IC50: Homo sapiens, C4-2, 120 h, day 5, read-out: Day Five Effects on Cell line IC50 (μM) ± S.E.M., C4-2; for growth of C4-2 cells (in words): 40 μM, 7 days with drug
Experimental: as §1

PC3 = assay: Long-term growth assay (crystal violet), PC3; type: cell-based; conditions: Homo sapiens, PC-3, 120 h; day 5; read-out: Day Five Effects on Cell line IC50 (μM) ± S.E.M., PC3
Experimental: as §1

[2] = tested on: sodium channel (BTX site 2); assay: 3H-BTX-B binding inhibition; conditions: for IC50: 3H-BTX-B Inhibition Data
Source text: One assay used to screen compounds for modulators of sodium channel activity, is based on the use of the radioligand 3-[H]-BTX-B assay. BTX binds to site 2 on the channel protein and thus compounds that can compete with or inhibit BTX binding to the sodium channel are potential sodium channel inhibitors. This assay represents a facile tool to prescreen sodium channel binding before evaluating compounds in more rigorous functional assays such as through electrophysiology.

[3] = tested on: all PCa cell lines tested (C4-2, DU145, PC-3, PC-3M); assay: Long-term growth assay, panel of PCa cell lines; type: cell-based, human
Experimental: as §1

[4] = tested on: PSA secretion by PCa C4-2 cells; assay: PSA secretion by PCa C4-2 cells; type: cell-based, human; conditions: for decrease of PSA secretion on a per cell basis: 40 μM
Experimental: PSA levels are clinically important in following tumor progression and burden. Sodium channel blockers 1, 2 and 44 (at 40 μM) and phenyloin at (100 μM) were investigated for their ability to suppress PSA secretion by PCa C4-2 cells.

[5] = tested on: anchorage-independent colony formation; assay: Soft agarose colony formation (SACF), 3-D growth; type: cell-based; conditions: for inhibition in 3-D growth (SACF) as compared to phenytoin: same concentration as 2-D
cell growth in 2-D = assay: 2-D growth assay; type: cell-based; conditions: molar equivalence to the phenytoin IC50
MAT-LyLu cells = conditions: 6 µM; cited from earlier work
PC-3 cells [6] = conditions: cited from earlier work

Nav1.5, sequence (Q14524 whole entry): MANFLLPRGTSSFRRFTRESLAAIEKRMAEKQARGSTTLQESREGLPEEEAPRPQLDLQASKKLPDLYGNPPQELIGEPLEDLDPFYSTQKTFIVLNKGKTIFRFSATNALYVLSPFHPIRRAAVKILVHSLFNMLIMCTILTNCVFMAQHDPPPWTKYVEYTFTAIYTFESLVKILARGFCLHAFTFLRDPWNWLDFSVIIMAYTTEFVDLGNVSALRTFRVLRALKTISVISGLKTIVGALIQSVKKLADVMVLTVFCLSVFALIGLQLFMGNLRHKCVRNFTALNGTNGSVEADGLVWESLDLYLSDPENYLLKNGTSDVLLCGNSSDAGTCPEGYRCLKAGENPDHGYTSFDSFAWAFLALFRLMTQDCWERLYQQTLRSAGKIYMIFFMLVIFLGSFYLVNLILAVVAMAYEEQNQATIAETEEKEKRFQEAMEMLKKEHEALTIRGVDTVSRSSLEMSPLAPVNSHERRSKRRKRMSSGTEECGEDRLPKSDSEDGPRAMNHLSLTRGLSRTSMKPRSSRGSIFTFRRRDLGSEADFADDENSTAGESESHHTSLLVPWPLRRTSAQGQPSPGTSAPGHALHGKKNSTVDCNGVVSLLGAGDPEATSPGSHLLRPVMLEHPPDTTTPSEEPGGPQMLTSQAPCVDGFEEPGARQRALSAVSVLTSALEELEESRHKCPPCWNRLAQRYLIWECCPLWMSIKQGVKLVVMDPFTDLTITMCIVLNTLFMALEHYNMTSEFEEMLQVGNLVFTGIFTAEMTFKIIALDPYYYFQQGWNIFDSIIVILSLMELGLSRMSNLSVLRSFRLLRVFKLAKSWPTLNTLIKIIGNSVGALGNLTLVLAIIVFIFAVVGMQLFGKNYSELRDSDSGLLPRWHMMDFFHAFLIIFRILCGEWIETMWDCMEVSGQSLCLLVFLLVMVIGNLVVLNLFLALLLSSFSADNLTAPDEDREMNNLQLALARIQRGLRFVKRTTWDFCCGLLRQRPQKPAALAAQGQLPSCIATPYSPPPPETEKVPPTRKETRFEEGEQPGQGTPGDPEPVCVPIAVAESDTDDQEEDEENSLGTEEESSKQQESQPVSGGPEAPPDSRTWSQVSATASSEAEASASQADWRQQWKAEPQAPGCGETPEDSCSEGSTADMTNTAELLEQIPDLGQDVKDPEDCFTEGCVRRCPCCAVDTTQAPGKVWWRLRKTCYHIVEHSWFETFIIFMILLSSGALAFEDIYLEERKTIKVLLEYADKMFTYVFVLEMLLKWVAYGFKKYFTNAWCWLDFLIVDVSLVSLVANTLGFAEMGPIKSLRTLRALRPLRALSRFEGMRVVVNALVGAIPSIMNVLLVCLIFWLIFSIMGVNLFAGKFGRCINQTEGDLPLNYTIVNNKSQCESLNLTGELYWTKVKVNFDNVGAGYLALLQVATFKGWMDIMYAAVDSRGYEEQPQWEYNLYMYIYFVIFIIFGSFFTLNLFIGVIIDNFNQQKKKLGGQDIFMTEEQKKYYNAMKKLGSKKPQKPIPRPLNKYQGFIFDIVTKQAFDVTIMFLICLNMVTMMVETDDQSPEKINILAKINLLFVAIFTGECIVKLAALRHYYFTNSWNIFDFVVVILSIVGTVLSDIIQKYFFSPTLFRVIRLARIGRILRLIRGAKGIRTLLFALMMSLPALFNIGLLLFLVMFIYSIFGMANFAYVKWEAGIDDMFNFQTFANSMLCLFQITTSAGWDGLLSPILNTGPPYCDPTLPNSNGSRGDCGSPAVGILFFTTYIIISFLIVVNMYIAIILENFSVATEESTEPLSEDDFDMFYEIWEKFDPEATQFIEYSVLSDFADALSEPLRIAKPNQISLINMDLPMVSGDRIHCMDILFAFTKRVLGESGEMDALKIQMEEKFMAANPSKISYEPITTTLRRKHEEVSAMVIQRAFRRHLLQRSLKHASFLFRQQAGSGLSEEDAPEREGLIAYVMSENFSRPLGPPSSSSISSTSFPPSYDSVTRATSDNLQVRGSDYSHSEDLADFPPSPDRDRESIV

Row | Compound | EC50 (Nav1.5) [µM] | IC50 (LNCaP) [µM] | IC50 (PC-3M) [µM] | inhibition at 1 µM (PC-3 cells [1]) [%] | inhibition at 10 µM (PC-3 cells [1]) [%] | inhibition at 20 µM (PC-3 cells [1]) [%] | inhibition at 40 µM (PC-3 cells [1]) [%] | inhibition at 100 µM (PC-3 cells [1]) [%] | effect on DNA synthesis (in words) (PC-3 cells [1]) | IC50 (DU-145) [µM] | IC50 (C4-2 cells) [µM] | IC50 (PC3) [µM] | decrease of PSA secretion on a per cell basis [4] [%] | also measured
1 | CCCCCCCC(O)(C(N)=O)c1ccc(F)cc1 (stereo not shown) [Compound 9] | 34.2 ± 7.4 | – | – | – | – | – | – | – | – | – | – | – | – | –
2 | CCCCCCCC1(c2ccccc2)NC(=O)NC1=O (stereo not shown) [Compound 44] | 29.8 ± 4.2 | 71.8 ± 1.8 | 58.4 | 12.8 | 26.6 | 32.7 | 55 | 82 | inhibited DNA synthesis better than phenyloin at all dosages tested | 35.6 ± 2.6 | 67.4 ± 1.3 | 66 ± 0.1 | 14.9 | % Inhibition of PC3 Cells (PC-3 cells [1]; 40 μM): 55.09%; inhibition of 3H-BTX-B binding in comparison to phenytoin [2]: effective inhibition; IC50 [2]: 5 ± 1 µM; selectivity of growth inhibition (in words) ([3]; long-term growth assay): cell selective inhibition of growth
3 | O=C1NC(=O)C(c2ccccc2)(c2ccccc2)N1 [phenytoin, reference compound] | > 200 | – | – | -23.8 | -13.9 | -21.8 | -12.5 | 30.8 | stimulatory | – | – | – | – | inhibition of SACF compared to the DMSO/EtOH control plates [5]: 25.7%; IC50 [2]: 40 µM; inhibition at 100 µM ([4]; Homo sapiens, C4-2, 100 μM): 17.8%
4 | CCCCCCCC(O)(C(N)=O)c1ccc(Cl)cc1 (stereo not shown) [Compound 2] | 12.7 ± 2.7 | 64.1 ± 4.3 | 50 | -3.61 | 25.2 | 44.6 | 48.9 | 96.2 | inhibited DNA synthesis better than phenyloin at all dosages tested | 67.2 ± 0.1 | 61.1 ± 0.1 | 66.8 ± 1.2 | 41.8 | enhanced inhibition using SACF, % of phenytoin [5]: 41.5 % of phenyloin; inhibition in 3-D growth (SACF) as compared to phenytoin [5]: ~62%; inhibition in 2-D growth assays (cell growth in 2-D): 42.3%; inhibition of 3H-BTX-B binding in comparison to phenytoin [2]: effective inhibition
5 | CCCCCCCC(O)(C(N)=O)c1cccc(Cl)c1 (stereo not shown) [Compound 1] | – | 72.2 ± 0.1 | 61.9 ± 0.1 | – | – | – | – | – | – | 56 ± 0.7 | 51.3 ± 0.2 | 66 ± 0.7 | 42.5 | Number of mice with impaired balance on the rotating rod/total # of animals tested (mice; 30 mg/kg i.p., 0.5 hours): 0/4; Number of mice with impaired balance on the rotating rod/total # of animals tested (mice; 30 mg/kg i.p., 4.0 hours): 0/2; Number of mice with impaired balance on the rotating rod/total # of animals tested (mice; 100 mg/kg i.p., 0.25 hours): 0/4^a; Number of mice with impaired balance on the rotating rod/total # of animals tested (mice; 100 mg/kg i.p., 0.5 hours): 1/8; Number of mice with impaired balance on the rotating rod/total # of animals tested (mice; 100 mg/kg i.p., 1.0 hours): 1/8; Number of mice with impaired balance on the rotating rod/total # of animals tested (mice; 300 mg/kg i.p., 0.5 hours): 3/4; Number of mice with impaired balance on the rotating rod/total # of animals tested (mice; 300 mg/kg i.p., 4.0 hours): 0/2; tolerated dose (mice; mice, i.p., acute): up to 300 mg/kg; inhibition in 3-D growth (SACF) as compared to phenytoin [5]: approximately 87.2%; growth of C4-2 cells (in words) (C4-2 cells): remarkable inhibition of growth; inhibition in 2-D growth assays (cell growth in 2-D): 66.3%; cells' growth, % of controls (maximum inhibition) ([3]; normalized to day 7 DMSO control): 20-25 % of controls; IC50 ([4]; Homo sapiens, C4-2, dose-response curve, read-out: IC50 for reducing PSA): ~10 µM
6 | NC1=N[C@H](O)[C@H]2[C@H]3O[C@]4(O)O[C@@H]([C@@H](O)[C@@]2(N1)[C@@H]4O)[C@]3(O)CO [TTX, Tetrodotoxin] | – | – | – | – | – | – | – | – | – | – | – | – | – | inhibition of invasiveness of MAT-LyLu cells in vitro (MAT-LyLu cells): up to 50%; reduction of invasiveness of PC-3 cells (PC-3 cells [6]): 31%
7 | CCN(CC)CC(=O)Nc1c(C)cccc1C [lidocaine, reference compound] | – | – | – | – | – | – | – | – | – | – | – | – | – | growth of C4-2 cells (in words) (C4-2 cells): mildly stimulatory
